The source made the active and inactive calls.
What was measured:
BJ [1] = test: BJ-TERT fibroblast viability loss – cell-based, RAS-independent, luminescence, dose response (AID 1933); assay type: functional; details: Homo sapiens
BJ [2] = test: cells; assay type: functional, cell-based; details: Homo sapiens
BJ [3] = test: BJ-TERT-LT-ST fibroblast viability loss – cell-based, RAS-independent, luminescence, dose response (AID 1935); assay type: functional; details: Homo sapiens;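 also: BJ fibroblasts immortalized with TERT plus LT and ST oncogenes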
Paired box protein Pax-8 = Paired box protein Pax-8 (Homo sapiens, UniProt Q06710); test: PAX8 transcriptional activity inhibition in RMG-I – RMG-I cells, luciferase, cherry-pick, dose response (AID 687027); assay type: functional, cell-based;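 also: luciferase reporter driven by Pax8 target thyroperoxidase promoter measured by SteadyGlo luminescence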
[4] = target: T1, Microphthalmia-associated transcription factor (Homo sapiens, UniProt O75030); test: reducers of TRPM1 reporter luminescence, concentration series – cell-based, SK-MEL-5, cherry-picked, set 3, MITF inhibitor project, dose response (AID 493073); assay type: functional;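 also: SK-MEL-5 melanoma cells with luciferase driven by the MITF target TRPM1 promoter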
T1 sequence (O75030 whole entry): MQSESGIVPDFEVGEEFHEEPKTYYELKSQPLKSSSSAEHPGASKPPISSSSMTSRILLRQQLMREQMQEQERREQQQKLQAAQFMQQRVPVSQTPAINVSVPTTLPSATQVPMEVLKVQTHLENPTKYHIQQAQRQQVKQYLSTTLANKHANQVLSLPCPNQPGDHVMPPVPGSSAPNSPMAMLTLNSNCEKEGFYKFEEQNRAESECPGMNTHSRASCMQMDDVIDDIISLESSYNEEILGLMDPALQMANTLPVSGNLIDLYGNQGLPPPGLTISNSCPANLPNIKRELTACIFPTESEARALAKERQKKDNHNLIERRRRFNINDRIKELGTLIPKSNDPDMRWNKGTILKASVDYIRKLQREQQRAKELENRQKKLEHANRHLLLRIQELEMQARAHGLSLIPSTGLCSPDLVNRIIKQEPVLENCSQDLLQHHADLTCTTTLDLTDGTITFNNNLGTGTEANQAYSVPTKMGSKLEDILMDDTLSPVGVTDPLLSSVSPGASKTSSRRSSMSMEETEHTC

A-375 = test: proliferation inhibition in MITF-low A375 cells – cell-based, cherry-pick samples, set 2, counter-screen for MITF modulator project, dose response (AID 540335); assay type: functional; details: Homo sapiens
BJ [5] = test: growth inhibition of engineered Ras-driven BJ cells – cell-based, alamar blue fluorescence, cherrypicked samples, dose response (AID 2631); assay type: functional; details: Homo sapiens;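 also: confirmatory dose-response assay in RAS-dependent BJ fibroblasts engineered with TERT, LT and ST, with cytotoxicity read by fluorescence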
[6] = DRD fibroblast viability loss – cell-based, non-viral oncogenic, luminescence, dose response (AID 1934); assay type: functional; details: Homo sapiens
[7] = off-target signal loss in HeLa-CEM21 co-culture – HeLa F-luc CTL cells, cherry-picked, counter-screen for HIV-1 Env fusion inhibitor project, dose response (AID 652040); assay type: functional, cell-based;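 also: potency for signal decrease marking cytotoxic or nonspecific inhibition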
HEK293 [8] = test: Fluorescence-based counterscreen for potentiators or agonists of NPY-Y2: cell-based high-throughput dose response assay to identify inhibitors of cyclic nucleotide gated ion channel (CNGC) activity. In this assay, the parental HEK293 cell line transfected with a cyclic-nucleotide gated ion channel (CNGC)-based cAMP sensor is used to measure inhibition of isoproterenol-induced CNGC activity by test compound.; assay type: functional; details: Homo sapiens
INS1 = test: INS-1E survival protection against cytokine death – cell-based, luminescence, retest, dose response (AID 449756); assay type: functional; details: Rattus norvegicus;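 also: cell death triggered by IL-1 beta plus TNF-alpha plus IFN-gamma mixture; protective hits raise ATP signal compared with cytokine alone wells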
[9] = target: T2, Neuropeptide Y receptor type 2 (Homo sapiens, UniProt P49146); test: Fluorescence-based cell-based high-throughput dose response assay for agonists of NPY-Y2. [Related pubchem assays: 1703 (Screening assay (CNGC inhibitors).), 1359 (Screening assay (NPY-Y2 potentiators or agonists).), 1304 (Screening assay (NPY-Y1 potentiators or agonists).), 1710 (Screening assay (NPY-Y2 agonists).), 1791 (Summary AID.)]; assay type: functional
T2 sequence (P49146 whole entry): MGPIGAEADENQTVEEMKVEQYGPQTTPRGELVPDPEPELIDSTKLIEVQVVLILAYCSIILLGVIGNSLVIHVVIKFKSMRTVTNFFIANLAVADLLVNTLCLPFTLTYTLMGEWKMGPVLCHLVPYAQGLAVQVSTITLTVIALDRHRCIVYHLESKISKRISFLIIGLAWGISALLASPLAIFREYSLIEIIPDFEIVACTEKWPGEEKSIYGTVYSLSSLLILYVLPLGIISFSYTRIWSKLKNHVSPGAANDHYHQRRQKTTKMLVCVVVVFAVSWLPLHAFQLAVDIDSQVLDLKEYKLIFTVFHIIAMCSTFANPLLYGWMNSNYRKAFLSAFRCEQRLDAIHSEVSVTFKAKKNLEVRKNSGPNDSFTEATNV

[10] = Luminescence Cell-Based Dose Response HTS to Identify Inhibitors of 5'UTR Stem-Loop Driven Prion Protein mRNA Translation in H4 Neuroglioblastoma Cells. [Related pubchem assays: 1827 (Project Summary), 1813 (Primary HTS)]; assay type: functional
[11] = HIV-1 AD8 envelope cell-cell fusion blockers – cherry-pick, dose response (AID 652062); assay type: functional, cell-based;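 also: luciferase signal from cell-cell fusion driven by HIV-1 clade B AD8 Env; potency is for inhibitors of fusion seen as a drop in luminescence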
[12] = alpha-synuclein stem-loop luciferase translation blockers – H4 neuroglioma cells, luminescence, confirmation (AID 1988); assay type: functional, cell-based
[13] = blockers of HIV-1 envelope-mediated cell-cell fusion – cherry-pick, dose response (AID 652057); assay type: functional, cell-based
[14] = CCR5-tropic HIV-1 fusion blockers – cell-based, CCR5-tropic Env, dose response (AID 2279); assay type: functional
[15] = viability loss in CEM21 cells – cell-based, CellTiter-Glo luminescence, cherry-picked, cytotoxicity control for viral fusion inhibitor project, dose response (AID 652042); assay type: functional;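 also: potency for signal decrease meaning cytotoxicity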
CAAX prenyl protease 2 = CAAX prenyl protease 2 (Homo sapiens, UniProt Q9Y256); test: inhibition of Ras-converting CAAX protease Rce1 – biochemical, yeast membranes, quenched-peptide fluorescence, cherry-pick, dose response (AID 588849)
[16] = blockers of HIV-1 ZM109 envelope-driven cell-cell fusion – HeLa effector, CEM target cells, luciferase, cherry-pick, dose response (AID 652058); assay type: functional, cell-based;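 also: luciferase signal from HIV-1 Env mediated cell-cell fusion of effector and target cells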
[17] = luciferase reporter signal suppression in cells – H4 neuroglioma cells, luminescence, dose response (AID 1990); assay type: functional, cell-based
Aminopeptidase N = target: T3, Aminopeptidase N (Plasmodium falciparum FcB1/Columbia, UniProt O96935); test: malaria alanyl aminopeptidase activity blockers – biochemical, fluorogenic H-Leu-NHMec substrate, 1536-well (AID 1445); parameters: species or system Plasmodium falciparum 3D7, 3D7
T3 sequence (O96935 whole entry): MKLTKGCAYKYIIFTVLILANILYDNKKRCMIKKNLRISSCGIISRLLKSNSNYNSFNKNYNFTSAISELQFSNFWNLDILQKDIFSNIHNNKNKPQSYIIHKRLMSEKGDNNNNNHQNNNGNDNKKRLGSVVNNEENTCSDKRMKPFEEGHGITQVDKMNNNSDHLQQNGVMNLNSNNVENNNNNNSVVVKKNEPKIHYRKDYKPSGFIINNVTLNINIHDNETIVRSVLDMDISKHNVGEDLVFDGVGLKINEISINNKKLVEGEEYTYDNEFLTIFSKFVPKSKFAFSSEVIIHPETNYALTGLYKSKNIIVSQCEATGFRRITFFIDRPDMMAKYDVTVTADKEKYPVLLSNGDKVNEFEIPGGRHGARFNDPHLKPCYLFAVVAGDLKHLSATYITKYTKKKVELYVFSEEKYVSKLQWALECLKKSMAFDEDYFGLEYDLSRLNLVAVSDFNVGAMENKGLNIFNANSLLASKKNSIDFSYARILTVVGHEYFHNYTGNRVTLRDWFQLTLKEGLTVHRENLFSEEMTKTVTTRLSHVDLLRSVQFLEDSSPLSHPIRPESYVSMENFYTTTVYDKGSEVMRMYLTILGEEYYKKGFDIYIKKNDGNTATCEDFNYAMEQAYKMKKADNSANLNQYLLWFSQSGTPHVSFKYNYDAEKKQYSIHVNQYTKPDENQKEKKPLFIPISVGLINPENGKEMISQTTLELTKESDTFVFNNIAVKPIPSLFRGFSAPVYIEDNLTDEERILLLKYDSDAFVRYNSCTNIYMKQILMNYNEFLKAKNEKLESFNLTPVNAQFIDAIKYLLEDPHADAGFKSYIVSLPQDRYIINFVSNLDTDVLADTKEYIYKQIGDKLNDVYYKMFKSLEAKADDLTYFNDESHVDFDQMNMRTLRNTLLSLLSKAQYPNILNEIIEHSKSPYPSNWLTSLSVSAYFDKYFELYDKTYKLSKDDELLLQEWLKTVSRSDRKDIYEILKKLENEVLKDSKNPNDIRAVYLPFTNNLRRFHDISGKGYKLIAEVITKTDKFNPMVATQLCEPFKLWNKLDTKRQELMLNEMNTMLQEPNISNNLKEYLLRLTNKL

[18] = target: T4, Neuropeptide Y receptor type 1 (Homo sapiens, UniProt P25929); test: Fluorescence-based counterscreen for agonists of NPY-Y2: cell-based high-throughput dose response assay for agonists of NPY-Y1.; assay type: functional
T4 sequence (P25929 whole entry): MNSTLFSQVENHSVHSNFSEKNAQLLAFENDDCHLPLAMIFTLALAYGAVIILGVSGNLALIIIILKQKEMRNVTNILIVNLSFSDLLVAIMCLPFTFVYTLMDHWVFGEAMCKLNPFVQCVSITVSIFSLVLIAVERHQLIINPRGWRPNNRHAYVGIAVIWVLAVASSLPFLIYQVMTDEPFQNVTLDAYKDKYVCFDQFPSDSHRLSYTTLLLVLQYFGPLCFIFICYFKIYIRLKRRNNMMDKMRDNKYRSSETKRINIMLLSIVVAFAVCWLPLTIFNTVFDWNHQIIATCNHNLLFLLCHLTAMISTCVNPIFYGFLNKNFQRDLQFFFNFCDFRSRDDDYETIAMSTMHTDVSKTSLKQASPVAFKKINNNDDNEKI

HEK293 [19] = test: cells; details: Homo sapiens
[20] = decrease of insulin promoter-GFP reporter – imaging, high-content screening, mouse beta cells (AID 1628); assay type: functional; details: MIN6
[21] = acridine orange displacement from DNA – biochemical, fluorescence polarization, cherry-pick, artefact control for RAD54 inhibitor project, dose response (AID 651673); assay type: functional
[22] = target: T5, DNA repair and recombination protein RAD54-like (Homo sapiens, UniProt Q92698); test: RAD54 Holliday junction migration blockers – biochemical, fluorescence, cherry-picked samples, dose series, confirmation (AID 651657); assay type: functional
T5 sequence (Q92698 whole entry): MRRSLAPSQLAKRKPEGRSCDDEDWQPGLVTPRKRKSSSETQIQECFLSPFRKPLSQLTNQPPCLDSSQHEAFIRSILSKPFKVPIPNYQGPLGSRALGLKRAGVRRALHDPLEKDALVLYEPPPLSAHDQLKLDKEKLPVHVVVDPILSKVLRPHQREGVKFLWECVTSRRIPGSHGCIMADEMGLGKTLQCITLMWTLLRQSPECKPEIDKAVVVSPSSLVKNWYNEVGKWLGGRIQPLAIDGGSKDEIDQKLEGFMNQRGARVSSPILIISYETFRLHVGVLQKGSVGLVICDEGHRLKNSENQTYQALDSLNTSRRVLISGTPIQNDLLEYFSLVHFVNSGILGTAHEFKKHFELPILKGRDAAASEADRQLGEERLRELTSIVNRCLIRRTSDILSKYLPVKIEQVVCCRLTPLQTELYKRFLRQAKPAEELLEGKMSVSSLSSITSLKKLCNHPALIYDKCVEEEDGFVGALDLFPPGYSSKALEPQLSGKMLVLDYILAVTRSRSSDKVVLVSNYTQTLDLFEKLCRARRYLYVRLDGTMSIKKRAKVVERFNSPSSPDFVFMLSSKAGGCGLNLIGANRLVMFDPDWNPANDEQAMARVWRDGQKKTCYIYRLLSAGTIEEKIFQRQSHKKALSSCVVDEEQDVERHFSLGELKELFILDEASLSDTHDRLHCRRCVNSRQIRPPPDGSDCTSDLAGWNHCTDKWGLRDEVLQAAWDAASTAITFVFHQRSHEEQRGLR

HEK293 [23] = test: cells; details: Homo sapiens; remark: listed apart in the source
[24] = MIN6 cell viability loss – mouse insulinoma, cytotoxicity control, dose response (AID 2122); assay type: functional;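 also: confirmatory high-throughput counterscreen run to flag cytotoxic compounds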
HT-1080 = test: HT1080 cell viability loss – fluorescence readout (AID 620); assay type: functional, cell-based; details: Homo sapiens
[25] = target: Luciferin 4-monooxygenase (Photinus pyralis, UniProt P08659); test: Counter Screen for Luciferase-based Assay Positives. [Related pubchem assays: 620, 618, 411 ]
Chain of Luciferin 4-monooxygenase (P08659 whole entry): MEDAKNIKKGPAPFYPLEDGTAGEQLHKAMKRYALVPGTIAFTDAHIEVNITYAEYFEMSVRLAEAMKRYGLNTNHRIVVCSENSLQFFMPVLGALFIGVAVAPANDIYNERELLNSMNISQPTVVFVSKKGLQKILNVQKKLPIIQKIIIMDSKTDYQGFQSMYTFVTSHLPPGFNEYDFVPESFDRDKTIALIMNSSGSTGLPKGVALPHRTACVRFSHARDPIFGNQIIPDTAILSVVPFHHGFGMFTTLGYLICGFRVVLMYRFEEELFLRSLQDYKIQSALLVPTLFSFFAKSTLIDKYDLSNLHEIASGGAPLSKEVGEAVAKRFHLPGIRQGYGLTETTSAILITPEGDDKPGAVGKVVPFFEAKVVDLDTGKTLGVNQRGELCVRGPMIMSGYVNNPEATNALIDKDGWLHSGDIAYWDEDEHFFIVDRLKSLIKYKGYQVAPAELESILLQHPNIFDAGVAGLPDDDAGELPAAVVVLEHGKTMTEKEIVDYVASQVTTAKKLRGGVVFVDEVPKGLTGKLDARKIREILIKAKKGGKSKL

Chain of CAAX prenyl protease 2 (Q9Y256 whole entry, the tested form may be a part): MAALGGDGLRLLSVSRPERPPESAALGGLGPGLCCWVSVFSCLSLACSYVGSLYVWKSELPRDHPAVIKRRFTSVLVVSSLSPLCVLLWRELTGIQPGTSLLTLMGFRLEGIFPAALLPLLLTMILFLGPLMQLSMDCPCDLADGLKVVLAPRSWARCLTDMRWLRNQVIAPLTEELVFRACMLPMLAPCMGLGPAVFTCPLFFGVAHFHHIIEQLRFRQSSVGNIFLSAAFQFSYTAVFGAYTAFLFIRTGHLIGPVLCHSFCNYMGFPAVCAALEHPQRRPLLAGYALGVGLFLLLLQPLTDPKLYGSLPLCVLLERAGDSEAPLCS
Chain of Paired box protein Pax-8 (Q06710 whole entry): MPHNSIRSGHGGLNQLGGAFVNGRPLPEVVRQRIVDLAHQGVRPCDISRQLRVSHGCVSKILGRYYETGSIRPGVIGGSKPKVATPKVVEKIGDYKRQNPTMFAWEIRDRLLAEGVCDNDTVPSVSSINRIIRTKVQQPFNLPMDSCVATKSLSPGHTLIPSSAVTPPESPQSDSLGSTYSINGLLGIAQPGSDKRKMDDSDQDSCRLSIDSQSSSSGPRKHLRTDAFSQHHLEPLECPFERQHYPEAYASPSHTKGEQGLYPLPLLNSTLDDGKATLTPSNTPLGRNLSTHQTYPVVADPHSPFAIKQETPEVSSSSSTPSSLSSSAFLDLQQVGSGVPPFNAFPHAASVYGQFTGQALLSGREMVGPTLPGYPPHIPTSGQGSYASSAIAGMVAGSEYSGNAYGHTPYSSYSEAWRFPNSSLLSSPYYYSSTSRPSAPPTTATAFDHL

Cc1cc(-n2c(SCC(=O)NCCC3=CCCCC3)nc3nnc(C)c-3c2N)ccc1Cl
EC50 (BJ [1]): 6.61 µM (active) | EC50 (BJ [2]): > 150 µM (not active) | EC50 (BJ [3]): > 150 µM (inconclusive) | AC50 (Paired box protein Pax-8): 7.33 µM (active) | AC50 [4]: 17.1 µM (active) | AC50 (A-375): 37.6 µM (active) | EC50 (BJ [5]): > 133 µM (inactive) | EC50 [6]: 14 µM (active)

O=C(Nc1cc(S(=O)(=O)N2CCCCC2)ccc1Cl)c1ccccc1NS(=O)(=O)c1ccc(F)cc1
AC50 [7]: 6.21 µM (active) | EC50 (HEK293 [8]): 4.53 µM (active) | AC50 (INS1): 3.42 µM (active) | EC50 [9]: 25.6 µM (not active) | EC50 [10]: > 60 µM (not active) | AC50 [11]: 10.8 µM (active) | EC50 [12]: 13.7 µM (active) | AC50 [13]: 28.4 µM (active) | AC50 (Paired box protein Pax-8): 5.08 µM (active) | IC50 [14]: 2 µM (active) | AC50 [15]: 32.9 µM (active) | AC50 (CAAX prenyl protease 2): 20.7 µM (active) | AC50 [16]: 25.6 µM (active) | EC50 (BJ [5]): > 133 µM (inactive) | EC50 [17]: 13.8 µM (active) | IC50 (Aminopeptidase N): 44.9 µM (active) | EC50 [18]: 12.7 µM (not active)

Nc1cccc2nc3ccccc3cc12
EC50 [10]: 7.26 µM (active) | EC50 (HEK293 [19]): > 6.63 µM (active) | EC50 [12]: > 120 µM (not active) | IC50 [20]: 3.72 µM (active) | AC50 [21]: 54 µM (active) | AC50 [22]: 4.75 µM (active) | EC50 (HEK293 [23]): > 59.7 µM (inactive) | IC50 [24]: 4.9 µM (active) | AC50 (CAAX prenyl protease 2): 5.07 µM (active) | EC50 (HT-1080): 22.8 µM (active) | EC50 [25]: 0.95 µM (active)

From ChEMBL document CHEMBL1201862, “PubChem BioAssay data set” (2004)
